According to the NIST ThermoML archive (doi:10.1016/j.jct.2011.07.014):

Conditions: Liquid, Transpiration method

CC(=O)CCC(=O)O [4-oxopentanoic acid]
Conditions	vapor or sublimation pressure [kPa]
328.4 K	0.00705
333.4 K	0.01045
338.3 K	0.01414
343.3 K	0.02096
343.4 K	0.02019
348.3 K	0.02702
353.3 K	0.0381
358.3 K	0.05278
358.4 K	0.05148
363.4 K	0.07587
368.4 K	0.101
373.4 K	0.1349
